Measured values taken from PMC11079024, “Identification of a family of species-selective complex I inhibitors as potential anthelmintics” (Nature Communications, 2024).
“And” between values parts separate entries of the source, which are not always exact repeats. Identical values can stand only once. Like-named read-outs stand apart in the source and are kept apart here.

Biological target: C. elegans (N2) complex I (NADH:ubiquinone oxidoreductase) (Caenorhabditis elegans, UniProt P24887+Q93873+Q94360)
Sequence (Q94360 17-199): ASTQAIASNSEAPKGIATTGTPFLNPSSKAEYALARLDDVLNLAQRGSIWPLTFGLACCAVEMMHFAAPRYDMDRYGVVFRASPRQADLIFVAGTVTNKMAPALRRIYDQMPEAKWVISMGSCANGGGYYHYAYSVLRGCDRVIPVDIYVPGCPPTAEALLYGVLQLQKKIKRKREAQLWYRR
Sequence (P24887 whole entry): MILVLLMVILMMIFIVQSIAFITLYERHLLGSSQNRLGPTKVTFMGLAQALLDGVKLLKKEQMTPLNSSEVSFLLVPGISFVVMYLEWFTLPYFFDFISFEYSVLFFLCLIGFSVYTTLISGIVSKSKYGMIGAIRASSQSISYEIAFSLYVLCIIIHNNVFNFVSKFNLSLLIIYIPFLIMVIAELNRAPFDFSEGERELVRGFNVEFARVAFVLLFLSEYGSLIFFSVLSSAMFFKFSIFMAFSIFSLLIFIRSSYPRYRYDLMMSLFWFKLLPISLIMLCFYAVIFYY
Sequence (Q93873 31-482): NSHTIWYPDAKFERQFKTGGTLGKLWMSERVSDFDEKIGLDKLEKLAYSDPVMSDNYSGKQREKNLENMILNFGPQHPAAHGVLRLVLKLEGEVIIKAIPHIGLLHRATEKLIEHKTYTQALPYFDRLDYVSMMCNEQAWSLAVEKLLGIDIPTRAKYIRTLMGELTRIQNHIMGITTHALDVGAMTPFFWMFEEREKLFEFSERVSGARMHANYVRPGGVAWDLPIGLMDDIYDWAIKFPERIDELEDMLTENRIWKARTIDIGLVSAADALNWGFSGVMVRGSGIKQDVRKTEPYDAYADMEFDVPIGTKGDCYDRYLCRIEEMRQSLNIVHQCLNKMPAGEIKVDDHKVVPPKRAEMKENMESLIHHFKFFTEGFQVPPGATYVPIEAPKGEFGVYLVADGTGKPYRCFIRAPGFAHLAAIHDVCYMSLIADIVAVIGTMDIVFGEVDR
Experiment: biochemical
Format: biochemical
Settings: for remaining activity at 15 µM / remaining activity at 37.5 µM / remaining activity at 75 µM: wild-type C. elegans mitochondria, read-out: percent (%) in vitro complex I activity relative to solvent control
In short: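 Mitochondria, 0.2 mg/mL protein, freeze-thawed three times, assayed in 25 mM KPi pH 7.5 with BSA, 80 μM NADH, 60 μM decylubiquinone, 160 μM DCIP, antimycin A and KCN. Rate from initial linear slope of A600 over 15 min. % of solvent control.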

[1] = C. elegans, Mean of replicates, read-out: Complex I activity, dose-response data
[2] = C. elegans, individual replicates (Rep), read-out: Complex I activity, dose-response data

## COc1cc2c(cc1OC)C(c1ccc(-c3ccc(Cl)c(Cl)c3)o1)=NCC2 [NPD3577]
Mean of replicates
  remaining activity at 15 µM: 62.2%
  remaining activity at 37.5 µM: 42.6%
  remaining activity at 75 µM: 40.7%
Single replicate
  remaining activity at 15 µM: 62.5%
  remaining activity at 37.5 µM: 37.8%
  remaining activity at 75 µM: 36.7%
100 µM compound, relative to solvent control, mean (SEM), read-out: % Activity Complex I
  activity at 100 µM: 36.8%
100 μM of NPD compound, C. elegans mitochondria, individual biological replicates, 100 µM
  Percent in vitro activity, Complex I (single replicate Rep1-Rep4): 43.782% and 34.898% and 43.141%
100 μM of NPD compound, C. elegans mitochondria, individual biological replicates, read-out: Percent in vitro activity, Complex I (single replicate Rep1-Rep4)
  activity at 100 µM: 25.5%
100 μM of NPD compound, C. elegans mitochondria, mean of four biological replicates, read-out: Percent in vitro activity, Complex I (Mean)
  activity at 100 µM: 36.8%
[1]
  activity at 0.0001 µM: 100%
  activity at 0.625 µM: 100%
[2]
  activity at 0.0001 µM: 100%
  activity at 0.625 µM: 100%
C. elegans, dose 0.0005 µM, Mean of replicates, read-out: Complex I activity, dose-response data
  activity at 0.0005 µM: 101%
C. elegans, dose 0.0005 µM, individual replicates (Rep)
  Complex I activity, dose-response data: 102.944 and 101.488 and 99.964
C. elegans, dose 0.0005 µM, individual replicates (Rep), read-out: Complex I activity, dose-response data
  activity at 0.0005 µM: 99.8%
C. elegans, dose 0.001 µM, Mean of replicates, read-out: Complex I activity, dose-response data
  activity at 0.001 µM: 107%
C. elegans, dose 0.001 µM, individual replicates (Rep)
  Complex I activity, dose-response data: 100.123 and 101.601 and 102.139 and 122.392
C. elegans, dose 0.0025 µM, Mean of replicates, read-out: Complex I activity, dose-response data
  activity at 0.0025 µM: 108%
C. elegans, dose 0.0025 µM, individual replicates (Rep)
  Complex I activity, dose-response data: 107.455 and 110.182 and 112.130
C. elegans, dose 0.0025 µM, individual replicates (Rep), read-out: Complex I activity, dose-response data
  activity at 0.0025 µM: 102%
C. elegans, dose 0.005 µM, Mean of replicates, read-out: Complex I activity, dose-response data
  activity at 0.005 µM: 104%
C. elegans, dose 0.005 µM, individual replicates (Rep)
  Complex I activity, dose-response data: 104.715 and 108.539 and 101.437
C. elegans, dose 0.005 µM, individual replicates (Rep), read-out: Complex I activity, dose-response data
  activity at 0.005 µM: 100%
C. elegans, dose 0.013 µM, Mean of replicates, read-out: Complex I activity, dose-response data
  activity at 0.013 µM: 97.9%
C. elegans, dose 0.013 µM, individual replicates (Rep)
  Complex I activity, dose-response data: 98.157 and 103.636 and 111.482 and 78.345
C. elegans, dose 0.025 µM, Mean of replicates, read-out: Complex I activity, dose-response data
  activity at 0.025 µM: 98.1%
C. elegans, dose 0.025 µM, individual replicates (Rep)
  Complex I activity, dose-response data: 97.798 and 102.639 and 113.034 and 78.823
C. elegans, dose 0.063 µM, Mean of replicates, read-out: Complex I activity, dose-response data
  activity at 0.063 µM: 101%
C. elegans, dose 0.063 µM, individual replicates (Rep)
  Complex I activity, dose-response data: 101.240 and 102.785 and 102.967
C. elegans, dose 0.063 µM, individual replicates (Rep), read-out: Complex I activity, dose-response data
  activity at 0.063 µM: 97%
C. elegans, dose 0.125 µM, Mean of replicates, read-out: Complex I activity, dose-response data
  activity at 0.125 µM: 96.8%
C. elegans, dose 0.125 µM, individual replicates (Rep)
  Complex I activity, dose-response data: 97.708 and 99.291 and 93.354
C. elegans, dose 0.125 µM, individual replicates (Rep), read-out: Complex I activity, dose-response data
  activity at 0.125 µM: 96.7%
C. elegans, dose 0.313 µM, Mean of replicates, read-out: Complex I activity, dose-response data
  activity at 0.313 µM: 92.4%
C. elegans, dose 0.313 µM, individual replicates (Rep)
  Complex I activity, dose-response data: 97.105 and 93.945 and 86.205
C. elegans, dose 0.313 µM, individual replicates (Rep), read-out: Complex I activity, dose-response data
  activity at 0.313 µM: 92.5%
C. elegans, dose 1.5 µM, Mean of replicates, read-out: Complex I activity, dose-response data
  activity at 1.5 µM: 94.3%
C. elegans, dose 1.5 µM, individual replicates (Rep)
  Complex I activity, dose-response data: 94.111 and 90.424 and 96.414
C. elegans, dose 1.5 µM, individual replicates (Rep), read-out: Complex I activity, dose-response data
  activity at 1.5 µM: 96.2%
C. elegans, dose 3 µM, Mean of replicates, read-out: Complex I activity, dose-response data
  activity at 3 µM: 92.6%
C. elegans, dose 3 µM, individual replicates (Rep)
  Complex I activity, dose-response data: 91.612 and 93.694 and 91.331
C. elegans, dose 3 µM, individual replicates (Rep), read-out: Complex I activity, dose-response data
  activity at 3 µM: 93.9%
C. elegans, dose 15 µM, Mean of replicates, read-out: Complex I activity, dose-response data
  activity at 15 µM: 62.2%
C. elegans, dose 15 µM, individual replicates (Rep)
  Complex I activity, dose-response data: 63.065 and 59.782 and 63.349
C. elegans, dose 15 µM, individual replicates (Rep), read-out: Complex I activity, dose-response data
  activity at 15 µM: 62.5%
C. elegans, dose 37.5 µM, Mean of replicates, read-out: Complex I activity, dose-response data
  activity at 37.5 µM: 42.6%
C. elegans, dose 37.5 µM, individual replicates (Rep)
  Complex I activity, dose-response data: 41.693 and 41.389 and 49.686
C. elegans, dose 37.5 µM, individual replicates (Rep), read-out: Complex I activity, dose-response data
  activity at 37.5 µM: 37.8%
C. elegans, dose 75 µM, Mean of replicates, read-out: Complex I activity, dose-response data
  activity at 75 µM: 40.7%
C. elegans, dose 75 µM, individual replicates (Rep)
  Complex I activity, dose-response data: 47.397 and 37.818 and 40.786
C. elegans, dose 75 µM, individual replicates (Rep), read-out: Complex I activity, dose-response data
  activity at 75 µM: 36.7%
wild-type (N2) mitochondria, read-out: C. elegans Complex I IC50
  IC50: 12.1 µM
